How the values were obtained:
[1] = tested on: P. falciparum strain NF54 attB parasites; experiment: Invasion assay: synchronized late-stage schizonts added to uninfected RBCs, parasitemia measured by FACS; format: cell-based
Protocol: Experimental protocol: Synchronized late-stage schizonts were added at 1% initial parasitemia to uninfected recipient normal RBCs and parasitemia was measured by FACS. Parasitemia is normalized to the control no-inhibitor condition. Data analyzed by one-way ANOVA. Statistically significant differences are indicated with a star over the bar. Asterisk (*) indicates p<0.01 compared to control (no-inhibitor).
FIG. 2 describes results of invasion assay in presence of titrated amounts of MIF inhibitors. […] All data is normalized to the control no-inhibitor condition. […] Asterisk (*) indicates p<0.01 compared to control (no-inhibitor).
(§1) P. falciparum strain NF54 attB parasites (Dr. Niles, MIT). Synchronized late-stage schizonts were added at 1% initial parasitemia to uninfected recipient normal RBCs and parasitemia was measured by FACS (FIG. 2). […] Given that ibudilast has inhibitory effect on the function of MIF as well as phosphodiesterase 4 (PDE4) in the RBC, it was evaluated whether specific inhibitors of MIF and PDE4 would cause major decline in parasitemia at similar dosages. While inhibition of parasite growth was not observed due to abolishing the function of PDE4 (data not shown), inhibition of the tautomerase activity of MIF in vitro by an irreversible inhibitor of MIF—4-IPP—caused a significant decline in the levels of parasitemia (FIG. 2).

[2] = tested on: P. falciparum infected RBC cultures; experiment: FACS analysis of infected RBC cultures (schizont stage); format: cell-based; details: 48 to 60 hours post infection; data not shown
Protocol: as §1

[3] = tested on: Pf-infected RBCs; experiment: Confocal microscopy of Pf-infected RBCs with BODIPY TR lipophilic intracellular staining (egress); format: cell-based, P. falciparum; details: treated Pf-infected RBCs; FIG. 3
Text: One plane of confocal microscopy z-stack is shown.

## COC(=O)CC1CC(c2ccc(O)cc2)=NO1 (stereo not shown) [ISO-1]
[1]; data not shown
  invasion at a range of concentrations: did not reduce the invasion

## Ic1cc(-c2ccccc2)ncn1 [Example 4-IPP]
[2]
  percentage of mature schizont: significant increase
[1]; 1% initial parasitemia, normal RBCs, FIG. 2
  parasitemia in vitro: significantly lowered parasitemia
[1]; inhibitor removed 6 h post-infection
  parasitemia after removal of inhibitor 6 h post-infection: did not recover the parasitemia
[1]; recipient RBCs treated 3 h and 6 h, inhibitor washed off before infection
  parasitemia after treating only the recipient RBCs before infection: parasitemia at the level of the control condition
[3]
  state of mature schizonts (egress): mature schizonts remain encapsulated

B1: hu-MIF: exogenous human macrophage migration inhibitory factor added in the invasion assay (protein, UniProt P14174 2-115, looked up)
Macrophage migration …: PMFIVNTNVPRASVPDGFLSELTQQLAQATGKPPQYIAVHVVPDQLMAFGGSSEPCALCSLHSIGKIGGAQNRSYSKLLCGLLAERLRISPDRVYINYYDMNAANVGWNNSTFA
[1]; cells preincubated for up to 6 h, data not shown
  parasitemia in presence of exogenous protein: did not show reduced or increased parasitemia

From patent US12428417B2, “Inhibitors of macrophage migration inhibitory factor” (The Brigham and Women's Hospital, Inc., priority 2019, dated 2025)
